The values below come from US9464084B2, “P2X7 modulators” (Janssen Pharmaceutica NV, priority 2013, dated 2016).

The assay deals with P2X7 (Homo sapiens (Human), UniProt Q99572). The assay is described as follows: P2X7 antagonism in human PBMCs (LPS + Bz-ATP induced IL-1β release, ELISA).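 On all read-outs here: PBMCs from donor human blood, with a further 1.5 h incubation of the cells in the assay.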 The conditions noted are these: LPS 30 ng/ml, Bz-ATP 0.5 mM; for PBMC 1 μM (% control): compound 1 μM; for PBMC 10 μM (% control): compound 10 μM. Type of assay: cell-based.
Sequence of P2X7 (Q99572 whole entry): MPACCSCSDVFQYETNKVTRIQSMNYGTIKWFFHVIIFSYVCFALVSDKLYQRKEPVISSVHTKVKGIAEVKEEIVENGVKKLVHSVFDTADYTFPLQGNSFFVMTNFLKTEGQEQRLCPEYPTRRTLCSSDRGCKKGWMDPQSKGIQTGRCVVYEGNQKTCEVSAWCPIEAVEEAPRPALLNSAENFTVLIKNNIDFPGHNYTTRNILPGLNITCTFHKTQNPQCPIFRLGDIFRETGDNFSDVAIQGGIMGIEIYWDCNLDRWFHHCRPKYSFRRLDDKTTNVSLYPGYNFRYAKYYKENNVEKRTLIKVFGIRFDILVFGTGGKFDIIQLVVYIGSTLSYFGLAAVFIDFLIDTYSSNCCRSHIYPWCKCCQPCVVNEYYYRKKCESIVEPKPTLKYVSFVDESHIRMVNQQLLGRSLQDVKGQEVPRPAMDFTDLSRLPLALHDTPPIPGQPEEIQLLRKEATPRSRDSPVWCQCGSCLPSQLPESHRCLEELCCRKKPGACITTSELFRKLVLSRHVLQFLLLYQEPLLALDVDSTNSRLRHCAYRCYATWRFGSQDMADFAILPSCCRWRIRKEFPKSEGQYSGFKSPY

Turning to `Cn1nc2c(c1-c1cccnc1)CCN(C(=O)c1cccc(C(F)(F)F)c1Cl)C2` [Example 107, 6-{[2-Chloro-3-(trifluoromethyl)phenyl]carbonyl}-2-methyl-3-pyridin-3-yl-4,5,6,7-tetrahydro-2H-pyrazolo[3,4-c]pyridine], the “PBMC 1 μM (% control)” value is listed as 24.7 % control.
Still for that read-out and setting: as for `Cn1nc2c(c1-c1cccnc1)CCN(C(=O)c1cccc(Cl)c1Cl)C2` [Example 111, 6-[(2,3-Dichlorophenyl)carbonyl]-2-methyl-3-pyridin-3-yl-4,5,6,7-tetrahydro-2H-pyrazolo[3,4-c]pyridine], the figure is 15.7 % control.
Regarding `CC1Cc2c(nnn2-c2ccccn2)CN1C(=O)c1cccc(C(F)(F)F)c1Cl` (centres unmarked) [Example 116, 5-{[2-Chloro-3-(trifluoromethyl)phenyl]carbonyl}-6-methyl-1-pyridin-2-yl-4,5,6,7-tetrahydro-1H-[1,2,3]triazolo[4,5-c]pyridine], the “PBMC 10 μM (% control)” value was 45.3 % control.
As for `CC1Cc2c(nnn2-c2ncccc2F)CN1C(=O)c1cccc(C(F)(F)F)c1Cl` (centres unmarked) [Example 122, 5-{[2-Chloro-3-(trifluoromethyl)phenyl]carbonyl}-1-(3-fluoropyridin-2-yl)-6-methyl-4,5,6,7-tetrahydro-1H-[1,2,3]triazolo[4,5-c]pyridine], the “PBMC 10 μM (% control)” value amounted to 0.2 % control.
On to `COc1ccccc1-n1nnc2c1CCN(C(=O)c1cccc(C(F)(F)F)c1F)C2` [Example 124, (2-Fluoro-3-(trifluoromethyl)phenyl)(1-(2-methoxyphenyl)-6,7-dihydro-1H-[1,2,3]triazolo[4,5-c]pyridin-5(4H)-yl)methanone], for which the “PBMC 1 μM (% control)” value turned out to be 94.7 % control.
For the compound `CC1c2nnn(-c3ncc(F)cn3)c2CCN1C(=O)c1cccc(C(F)(F)F)c1Cl` (centres unmarked) [Example 153, (2-Chloro-3-(trifluoromethyl)phenyl)(1-(5-fluoropyrimidin-2-yl)-4-methyl-6,7-dihydro-1H-[1,2,3]triazolo[4,5-c]pyridin-5(4H)-yl)methanone], the “PBMC 10 μM (% control)” value amounted to 28.9 % control.
On the same count and under the same terms, as for `CC1Cc2c(nnn2-c2ncccc2F)CN1C(=O)c1cccc(Cl)c1Cl` (centres unmarked) [Example 161, (2,3-Dichlorophenyl)(1-(3-fluoropyridin-2-yl)-6-methyl-6,7-dihydro-1H-[1,2,3]triazolo[4,5-c]pyridin-5(4H)-yl)methanone], the figure is −0.9 % control; as for `CC1c2nnn(-c3ncc(F)cn3)c2CCN1C(=O)c1cccc(C(F)(F)F)c1F` (centres unmarked) [Example 175, (2-fluoro-3-(trifluoromethyl)phenyl)(1-(5-fluoropyrimidin-2-yl)-4-methyl-6,7-dihydro-1H-[1,2,3]triazolo[4,5-c]pyridin-5(4H)-yl)methanone], 4.5 % control.
The same measure, in the same setting: as for `CCc1nc2c(n1-c1ccccc1)CCN(C(=O)c1cccc(C(F)(F)F)c1Cl)C2C` (centres unmarked) [Example 184, (2-Chloro-3-(trifluoromethyl)phenyl)(2-ethyl-4-methyl-1-phenyl-6,7-dihydro-1H-imidazo[4,5-c]pyridin-5(4H)-yl)methanone], the figure is −0.7 % control; as for `CC1Cc2c(nnn2-c2ncc(F)cn2)CN1C(=O)c1cccc(C(F)(F)F)c1Cl` (centres unmarked) [Example 200, 5-{[2-Chloro-3-(trifluoromethyl)phenyl]carbonyl}-1-(5-fluoropyrimidin-2-yl)-6-methyl-4,5,6,7-tetrahydro-1H-[1,2,3]triazolo[4,5-c]pyridine], 3.2 % control; as for `CC1Cc2c(nnn2-c2ncc(F)cn2)CN1C(=O)c1cccc(Cl)c1Cl` (centres unmarked) [Example 203, 5-[(2,3-Dichlorophenyl)carbonyl]-1-(5-fluoropyrimidin-2-yl)-6-methyl-4,5,6,7-tetrahydro-1H-[1,2,3]triazolo[4,5-c]pyridine], 0.6 % control.
The same measure, in the same setting: as for `Cc1c(C(=O)N2Cc3nnn(-c4ncc(F)cn4)c3CC2C)cccc1C(F)(F)F` (centres unmarked) [Example 206, 1-(5-Fluoropyrimidin-2-yl)-6-methyl-5-{[2-methyl-3-(trifluoromethyl)phenyl]carbonyl}-4,5,6,7-tetrahydro-1H-[1,2,3]triazolo[4,5-c]pyridine], the figure is −1.0 % control; as for `CC1Cc2c(nnn2-c2cnccn2)CN1C(=O)c1cccc(C(F)(F)F)c1Cl` (centres unmarked) [Example 209, 5-{[2-Chloro-3-(trifluoromethyl)phenyl]carbonyl}-6-methyl-1-pyrazin-2-yl-4,5,6,7-tetrahydro-1H-[1,2,3]triazolo[4,5-c]pyridine], −1.0 % control.
Turning to `CC1Cc2c(nnn2-c2cc[nH]n2)CN1C(=O)c1cccc(C(F)(F)F)c1Cl` (centres unmarked) [Example 210, (2-chloro-3-(trifluoromethyl)phenyl)(6-methyl-1-(1H-pyrazol-3-yl)-6,7-dihydro-1H-[1,2,3]triazolo[4,5-c]pyridin-5(4H)-yl)methanone], the “PBMC 10 μM (% control)” value was 0.8 % control.
Consider `CC1Cc2c(nnn2-c2ncc(F)cn2)CN1C(=O)c1ccc(F)c(Cl)c1Cl` (centres unmarked) [Example 213, 5-[(2,3-Dichloro-4-fluorophenyl)carbonyl]-1-(5-fluoropyrimidin-2-yl)-6-methyl-4,5,6,7-tetrahydro-1H-[1,2,3]triazolo[4,5-c]pyridine], for which the “PBMC 10 μM (% control)” value came to 0.3 % control.
Still for that read-out and setting: as for `C[C@@H]1Cc2c(nnn2-c2ncc(F)cn2)CN1C(=O)c1cccc(C(F)(F)F)c1F` [Example 219, (6R)-1-(5-Fluoropyrimidin-2-yl)-5-{[2-fluoro-3-(trifluoromethyl)phenyl]carbonyl}-6-methyl-4,5,6,7-tetrahydro-1H-[1,2,3]triazolo[4,5-c]pyridine], the figure is 76.5 % control.
Take `C[C@H]1Cc2c(nnn2-c2ncc(F)cn2)CN1C(=O)c1cccc(C(F)(F)F)c1F` [Example 220, (6S)-1-(5-Fluoropyrimidin-2-yl)-5-{[2-fluoro-3-(trifluoromethyl)phenyl]carbonyl}-6-methyl-4,5,6,7-tetrahydro-1H-[1,2,3]triazolo[4,5-c]pyridine]: the “PBMC 10 μM (% control)” value is 15.1 % control.
On the same count and under the same terms, as for `Cc1cccc(-n2nnc3c2CCN(C(=O)c2cccc(Cl)c2Cl)C3C)n1` (centres unmarked) [Example 233, (2,3-dichlorophenyl)(4-methyl-1-(6-methylpyridin-2-yl)-6,7-dihydro-1H-[1,2,3]triazolo[4,5-c]pyridin-5(4H)-yl)methanone], the figure is −0.1 % control; as for `Cc1ccnc(-n2nnc3c2CCN(C(=O)c2cccc(Cl)c2Cl)C3C)c1` (centres unmarked) [Example 237, (2,3-dichlorophenyl)(4-methyl-1-(4-methylpyridin-2-yl)-6,7-dihydro-1H-[1,2,3]triazolo[4,5-c]pyridin-5(4H)-yl)methanone], −5.1 % control; as for `CC1Cc2c(nnn2-c2ccccc2)C(C)N1C(=O)c1cccc(C(F)(F)F)c1Cl` (centres unmarked) [Example 240, (2-Chloro-3-(trifluoromethyl)phenyl)(4,6-dimethyl-1-phenyl-6,7-dihydro-1H-[1,2,3]triazolo[4,5-c]pyridin-5(4H)-yl)methanone], −8.9 % control.
On the same count and under the same terms, in the case of `CC1Cc2c(nnn2-c2ccc(F)cc2)C(C)N1C(=O)c1cccc(C(F)(F)F)c1Cl` (centres unmarked) [Example 243, (2-Chloro-3-(trifluoromethyl)phenyl)(1-(4-fluorophenyl)-4,6-dimethyl-6,7-dihydro-1H-[1,2,3]triazolo[4,5-c]pyridin-5(4H)-yl)methanone] it was 1.0 % control; in that of `O=C(c1ccc(Cl)cc1Cl)N1CCc2c(nnn2-c2ncccn2)C1` [Example 257, (2,4-dichlorophenyl)(1-(pyrimidin-2-yl)-6,7-dihydro-1H-[1,2,3]triazolo[4,5-c]pyridin-5(4H)-yl)methanone], 7.1 % control.
The same measure, in the same setting: in the case of `Cc1cccnc1-n1nnc2c1CCN(C(=O)c1cccc(C(F)(F)F)c1Cl)C2C` (centres unmarked) [Example 259, (2-Chloro-3-(trifluoromethyl)phenyl)(4-methyl-1-(3-methylpyridin-2-yl)-6,7-dihydro-1H-[1,2,3]triazolo[4,5-c]pyridin-5(4H)-yl)methanone] it was −3.5 % control; in that of `CC1c2ncn(-c3ccc(F)cn3)c2CCN1C(=O)c1ccc(C(C)(C)C)cc1` (centres unmarked) [Example 265, (4-(tert-butyl)phenyl)(1-(5-fluoropyridin-2-yl)-4-methyl-6,7-dihydro-1H-imidazo[4,5-c]pyridin-5(4H)-yl)methanone], 76.5 % control; in that of `Cc1c(C(=O)N2CCc3c(nnn3-c3ncccn3)C2C)cccc1C(F)(F)F` (centres unmarked) [Example 282, (4-methyl-1-(pyrimidin-2-yl)-6,7-dihydro-1H-[1,2,3]triazolo[4,5-c]pyridin-5(4H)-yl)(2-methyl-3-(trifluoromethyl)phenyl)methanone], −5.5 % control.
Consider `C[C@@H]1Cc2c(nnn2-c2ccc(F)cc2)[C@@H](C)N1C(=O)c1cccc(C(F)(F)F)c1Cl` [Example 284, (2-chloro-3-(trifluoromethyl)phenyl)((4R,6R)-1-(4-fluorophenyl)-4,6-dimethyl-6,7-dihydro-1H-[1,2,3]triazolo[4,5-c]pyridin-5(4H)-yl)methanone], for which the “PBMC 10 μM (% control)” value was determined as 18.2 % control.
Still for that read-out and setting: in the case of `C[C@H]1Cc2c(nnn2-c2ccc(F)cc2)[C@H](C)N1C(=O)c1cccc(C(F)(F)F)c1Cl` [Example 285, (2-chloro-3-(trifluoromethyl)phenyl)((4S,6S)-1-(4-fluorophenyl)-4,6-dimethyl-6,7-dihydro-1H-[1,2,3]triazolo[4,5-c]pyridin-5(4H)-yl)methanone] it was −2.6 % control; in that of `C[C@@H]1Cc2c(nnn2-c2ccc(F)cc2)[C@H](C)N1C(=O)c1cccc(C(F)(F)F)c1Cl` [Example 286, (2-chloro-3-(trifluoromethyl)phenyl)((4S,6R)-1-(4-fluorophenyl)-4,6-dimethyl-6,7-dihydro-1H-[1,2,3]triazolo[4,5-c]pyridin-5(4H)-yl)methanone], 5.8 % control; in that of `C[C@@H]1c2nnn(-c3ccc(F)cc3)c2C[C@H](C)N1C(=O)c1cccc(C(F)(F)F)c1Cl` [Example 287, (2-chloro-3-(trifluoromethyl)phenyl)((4R,6S)-1-(4-fluorophenyl)-4,6-dimethyl-6,7-dihydro-1H-[1,2,3]triazolo[4,5-c]pyridin-5(4H)-yl)methanone], −4.1 % control.
